Test results taken from patent US12446577B2 (priority 2018, dated 2025).
Like-named read-outs stand apart in the source and are kept apart here.

Assays:
powdery mildew on apple = assay: Trial on potted apple trees against powdery mildew; format: in vivo; details: day 85; weekly sprays (TMAP 10 mL/L; Chemical per Table 13/14); 1000 leaves per object
Excerpt: (§1) During the third week of March 2017, 60 branched apple trees (rootstock M9—clone Golden B) of 2 years were transplanted from a local nursery into pots (pot: 12 Liters). The 60 potted apple plants were maintained outside the greenhouse in S. Michele all′Adige (Trento). Plants were maintained divided in 3 blocks. Each block was composed of 20 plants arranged in two rows (See scheme 1). Plants were watered through a drip irrigation system once or twice a week according to the weather conditions. The insecticidal treatments were applied uniformly on all the experimental plants. Two of the three objects were treated against powdery mildew in accordance with the foreseen spray scheme: Chemical treatments, TMAP alone, untreated. One object was maintained Untreated as reference. For the “Chemical” object, different active ingredients were used alone or in combination (Table 13).
The treatments were performed at the same time, and timings of spray were done weekly and according to the weather conditions. […]
Powdery mildew: 5 shoots per each plant were randomly selected and labeled for the assessments. The assessment on powdery mildew was done on day 85, ten leaves of each shoot were singularly evaluated for the presence of symptoms, 5 marked shoots per plant were assessed. […]
Data of powdery mildew incidence were analyzed using the Statistica 13.1 software.

Fusarium graminearum = format: cell-based; details: 6 days at 25° C; for Average mycellium diameter: n = 4; for % inhibition of the pathogens: vs untreated PDA
Bintje leaflets = assay: Phytotoxicity symptoms on dipped potato leaflets (Example 4); format: in vivo; details: highest concentration (10 L/ha), 7 days
Phytophthora infestans = format: in vivo; details: 1 min dip, 7 days of incubation; for Lesion Size: n = 5
[1] = system: Powdery Mildew (Podosphaera xanthii); assay: Single leaf test powdery mildew on zucchini; details: zucchini leaf N sprayed with 0.8% in water; 8 days after the treatment
Experimental: Single leaf test Powdery Mildew (Podosphaera xanthii). A zucchini plant was selected with a powdery mildew infection on old leaves. In addition to a leaf showing the first signs of infection of powdery mildew (leaf N−1), two leaves without infection (leaf N and N+1) were selected.
Leaves (N+1) and (N−1) were left untreated. The fungal infection was assessed 8 days after the treatment.

apple trees = assay: Phytotoxicity on apple trees in the powdery mildew trial; format: in vivo; details: repeated applications during the season, 10 mL/L
Excerpt: as §1
The treatments were performed at the same time, and timings of spray were done weekly and according to the weather conditions. The applications were done with a pressurized hand sprayer (water volume 1.5-2 L per object).

Rhizoctonia solani = assay: Mycelium growth inhibition on PDA (Example 7); format: cell-based; details: 3 days at 25° C; for Average mycelium diameter: n = 4
Experimental: (§2) Strains used for this trial were kept and refreshed on Potato Dextrose Agar (PDA) at 25° C.
(§3) To begin, a quantity of test product was directly added in a certain volume of PDA (about 20 mL/petri dish) (Table 11). Plugs of agar (diameter 10 mm) from one week-old cultures were placed at the centre of the PDA plates. Each object was performed in 4 repetitions. The petri dishes were then incubated at 25° C. in the dark. After 3 and 6 days of incubation, the diameter of the colonies was measured in 2 perpendicular directions. The percentage of inhibition was calculated for each product/concentration compare to the untreated.

Botrytis cinerea = assay: Mycelium growth inhibition on PDA (Example 7); format: cell-based; details: 3 days at 25° C; for Average mycelium diameter: n = 4
Experimental: as §2, §3

Sclerotinia minor = assay: Mycelium growth inhibition on PDA (Example 7); format: cell-based; details: 3 days at 25° C; for Average mycelium diameter: n = 4
Experimental: as §2, §3

Pythium ultimum = assay: Mycelium growth inhibition on PDA (Example 7); format: cell-based; details: 3 days at 25° C; for Average mycelium diameter: n = 4
Experimental: as §2, §3

Sclerotinia sclerotiorum = assay: Mycelium growth inhibition on PDA (Example 7); format: cell-based; details: 3 days at 25° C; for Average mycelium diameter: n = 4
Experimental: as §2, §3

Plasmopara viticola = Plasmopara viticola grapevine leaf disc test; format: in vivo
Experimental: A stock solution of choline pelargonate (29.1% PLA and 40.4% Choline hydroxide, pH 8.82) was made by mixing 14.55 mL PLA with 15.25 mL distilled water and afterwards the addition of 20.2 mL of Choline hydroxide. The choline pelargonate stock solution (42.04%) was diluted in order to create a solution with a final concentration of choline pelargonate equal to 1 mL/L and 10 mL/L. The two choline pelargonate solutions, water as negative control and copper hydroxide (2 g/L) as positive control were used for this test. For each object 4 Petri plates were prepared and each plate contains 5 grapevine leaf discs (see Table 8 below).
Leaf discs preparation: leaf discs (diameter 19 mm) were prepared from grapevine cuttings (variety Pinot Nero Entav 115) using the young leaves. 5 leaf discs were placed in each Petri Plate on autoclaved paper (4 layers), the paper was previously wetted by adding 8.5 mL of sterile water in each plate. The leaf discs were placed on the paper with the abaxial side upward.
Test products application and pathogen inoculation: leaf discs were treated with the test products at 11.30 A.M (i.e. a preventive application) and the leaves were allowed to dry. The products were sprayed with a small hand sprayer; 5 sprays were applied on each plate. The same day at 16.30 a suspension of P. viticola spores at final concentration of 2*10^5 spore/mL was applied (5 hours after test product application) on the leaf discs. The inoculated plates were incubated overnight in the dark at 25° C. The following day, the leaf discs were dried under the laminar flow and then placed back at 25° C. The disease assessment was done 7 days after the artificial inoculation.

[2] = system: Botrytis cinerea (lettuce); assay: Mycelium growth inhibition on PDA (Example 2); format: cell-based; details: 6 days at 25° C; for Average mycellium diameter: n = 4; for % inhibition of the pathogens: vs untreated PDA
Experimental: (§4) Strains used for this trial (Table 3) were kept and refreshed on Potato Dextrose Agar (PDA) at 25° C.
(§5) In a first setup, a test composition was directly added to PDA (about 20 mL/petri dish) (Table 4). Plugs of agar (diameter 8 mm) from two week-old cultures were placed at the center of the PDA plates. Each test was performed in 4 repetitions. The petri dishes were then incubated at 25° C. After 6 days of incubation, the diameter of the colonies was measured in 2 perpendicular directions. The percentage of inhibition was calculated for each tested composition and compared to the untreated PDA.

[3] = system: Botrytis cinerea (grapevine); assay: Mycelium growth inhibition on PDA (Example 2); format: cell-based; details: 6 days at 25° C; for Average mycellium diameter: n = 4; for % inhibition of the pathogens: vs untreated PDA
Experimental: as §4, §5

[4] = dose rate 1 L·kg/ha (0.2 mL in 100 mL water)
[5] = dose rate 10 L·kg/ha (2 mL in 100 mL water)

For `CCCCCCCCC(=O)[O-].C[N+](C)(C)CCO` [Choline pelargonate, choline pelargonate], the “disease incidence (percentage of infected leaves)” value (powdery mildew on apple) was 25.5%, the Average mycellium diameter (Fusarium graminearum; 0.36% AI in PDA) was 17.6 ± 21.1 mm and the “% inhibition of the pathogens” value (Fusarium graminearum; 0.36% AI in PDA) was 77%. For the same molecule, the Average mycellium diameter (Fusarium graminearum; 3.6% AI in PDA) was 0.0 ± 0.0 mm, the “% inhibition of the pathogens” value (Fusarium graminearum; 3.6% AI in PDA) was 100% and the “phytotoxicity symptoms on leaflets” value (Bintje leaflets) was “some minor phytoxicity symptoms on the edge and stem”. For the same molecule, the “Efficacy (%) (Abbott)” value (Phytophthora infestans; [4]) was 84.9%, the “Lesion Size” value (Phytophthora infestans; [4]) was 0.41 ± 0.57 cm^2 and the “Efficacy (%) (Abbott)” value (Phytophthora infestans; [5]) was 100.0%. The “Lesion Size” value (Phytophthora infestans; [5]) was 0.00 ± 0.00 cm^2, the “surface of leaf covered by powdery mildew” value [1] was “less than 5%” and the “symptoms of phytotoxicity on the plants” value (apple trees) was “no symptoms of phytotoxicity”. The “% efficacy compared to control (Abbott)” value (Rhizoctonia solani; 0.042% a.i. in PDA) was 67%, the Average mycelium diameter (Rhizoctonia solani; 0.042% a.i. in PDA) was 17.1 ± 1.9 mm and the “% efficacy compared to control (Abbott)” value (Rhizoctonia solani; 0.42% a.i. in PDA) was 100%. For the same molecule, the Average mycelium diameter (Rhizoctonia solani; 0.42% a.i. in PDA) was 0.3 ± 0.5 mm, the “% efficacy compared to control (Abbott)” value (Botrytis cinerea; 0.042% a.i. in PDA) was 98% and the Average mycelium diameter (Botrytis cinerea; 0.042% a.i. in PDA) was 0.9 ± 1.8 mm. The “% efficacy compared to control (Abbott)” value (Botrytis cinerea; 0.42% a.i. in PDA) was 100%, the Average mycelium diameter (Botrytis cinerea; 0.42% a.i. in PDA) was 0.0 ± 0.0 mm and the “% efficacy compared to control (Abbott)” value (Sclerotinia minor; 0.042% a.i. in PDA) was 96%. The Average mycelium diameter (Sclerotinia minor; 0.042% a.i. in PDA) was 2.8 ± 4.3 mm, the “% efficacy compared to control (Abbott)” value (Sclerotinia minor; 0.42% a.i. in PDA) was 99% and the Average mycelium diameter (Sclerotinia minor; 0.42% a.i. in PDA) was 0.8 ± 0.9 mm. The “% efficacy compared to control (Abbott)” value (Pythium ultimum; 0.042% a.i. in PDA) was 100%, the Average mycelium diameter (Pythium ultimum; 0.042% a.i. in PDA) was 0.0 ± 0.0 mm and the “% efficacy compared to control (Abbott)” value (Pythium ultimum; 0.42% a.i. in PDA) was 100%. The Average mycelium diameter (Pythium ultimum; 0.42% a.i. in PDA) was 0.0 ± 0.0 mm, the “% efficacy compared to control (Abbott)” value (Sclerotinia sclerotiorum; 0.042% a.i. in PDA) was 98% and the Average mycelium diameter (Sclerotinia sclerotiorum; 0.042% a.i. in PDA) was 1.4 ± 0.5 mm. The “% efficacy compared to control (Abbott)” value (Sclerotinia sclerotiorum; 0.42% a.i. in PDA) was 100%, the Average mycelium diameter (Sclerotinia sclerotiorum; 0.42% a.i. in PDA) was 0.0 ± 0.0 mm and the “disease severity (level of sporulation)” value (Plasmopara viticola; 1 mL/L, preventive spray, 7 days after the artificial inoculation) was 5.3%. For the same molecule, the disease severity (Plasmopara viticola; 10 mL/L, preventive spray, 7 days after the artificial inoculation) was 0%, the “efficacy against P. viticola” value (Plasmopara viticola; test repeated a second and a third time (data not shown)) was “comparable with the reference copper” and the Average mycellium diameter ([2]; 0.36% AI in PDA) was 0.0 ± 0.0 mm. The “% inhibition of the pathogens” value ([2]; 0.36% AI in PDA) was 100%, the Average mycellium diameter ([2]; 3.6% AI in PDA) was 0.0 ± 0.0 mm and the “% inhibition of the pathogens” value ([2]; 3.6% AI in PDA) was 100%. The Average mycellium diameter ([3]; 0.36% AI in PDA) was 0.0 ± 0.0 mm, the “% inhibition of the pathogens” value ([3]; 0.36% AI in PDA) was 100% and the Average mycellium diameter ([3]; 3.6% AI in PDA) was 0.0 ± 0.0 mm. The “% inhibition of the pathogens” value ([3]; 3.6% AI in PDA) was 100%.
